{"source": "patent US8969296B2", "about": "“TGFP-CAP peptide and its uses” (Caregen Co., Ltd, priority 2007, dated 2015)", "key": {"[1]": {"tested_on": "B16F10 cells", "experiment": "Melanosome formation under ERK inhibition by PD98059 (microscopy)", "assay_type": "cell-based", "conditions": "10 μM PD98059; with 1 ng/ml transforming growth factor or 30 μg/ml tridecapeptide; 4 days", "description": "To reveal skin whitening effects of the tridecapeptide synthesized in Example 1 and transforming growth factor, the activation of ERK was inhibited with PD98059 (Sigma) and then its inhibitory influence was evaluated after peptide treatment. B16F10 cells were seeded in 6-well culture dishes in a density of 1×10^5 cells/well and cultured in DMEM for 3 days at 37° C. under 5% CO2 conditions. After cell adhesion was observed, medium was changed with a fresh medium containing 2% serum. The negative control was not subject to any treatment. Cells plated in other two culture dishes were incubated with either 1 ng/ml transforming growth factor or 30 μg/ml tridecapeptide. In addition, cells cultured in other three dishes as a positive control were incubated with 10 μM PD98059 to inhibit ERK phosphorylation. Among them, cells contained in two dishes were incubated for 4 days with either 1 ng/ml transforming growth factor or 30 μg/ml tridecapeptide after 1-hr PD98059 treatment and their morphology was observed under microscopes."}, "[2]": {"tested_on": "TRP-1 (tyrosinase related protein-1) and TRP-2", "experiment": "Levels of TRP-1 and TRP-2 in melanoma cells (Western blotting)", "assay_type": "cell-based", "conditions": "10 μM PD98059; with 10 ng/ml TGF-β1 or 30 μg/ml tridecapeptide"}, "[3]": {"tested_on": "ERK 1/2", "experiment": "Western blotting of Phospho ERK 1/2 in melanoma cells", "assay_type": "cell-based", "conditions": "10 μM PD98059; with 10 ng/ml TGF-β1 or 30 μg/ml tridecapeptide", "description": "Furthermore, to clearly verify the influence of TGF-β1 and tridecapeptide on signaling events, melanoma cells were cultured as described above and then incubated simultaneously with 10 μM PD98059 and 30 μg/ml tridecapeptide. Proteins from cell extracts were prepared and developed on SDS-PAGE, followed by electro-transferring to PVDF (polyvinylidene difluoride) membrane (GE Health Care). Afterwards, the PVDF membrane was incubated with Phospho ERK 1/2 antibodies (1/3000 diluted, Cell Signaling, USA) for 4 hr at room temperature. The PVDF membrane was washed with a washing buffer and incubated with HRP-conjugated anti-mouse IgG antibodies (1/5000 diluted, SantaCruz, USA). Then, it was washed twice with a washing buffer and incubated with ECL (enhanced chemilumineseance) solution (GE Health Care) (FIG. 6). In FIG. 6, among PD98059 treatment groups, the symbol “Con” is a group incubated with only 10 μM PD98059 and “TGFb1” is a group incubated with both 10 μM PD98059 and 10 ng/ml TGF-β1."}, "[4]": {"tested_on": "NIH-3T3 cells", "experiment": "Stability analysis: remaining activity of solutions stored at 37° C., by MTT assay", "assay_type": "physicochemical", "conditions": "50 mM Tris-HCl (pH 8.0), days 0-100, tridecapeptide 10 μg/ml, TGF-β1 1 μg/ml", "description": "To evaluate stability of the purified tridecapeptide, NH2-Ile-Trp-Ser-Leu-Asp-Thr-Gln-Tyr-Gly-Gly-Arg-Gly-Asp-OH, it was dissolved in 50 mM Tris-HCl (pH 8.0) to a concentration of 10 μg/ml. A recombinant TGF-β1 (Sigma) produced by E. coli was prepared as a control in the same buffer to a concentration of 1 μg/ml. The prepared solutions were introduced into glass vials and kept to stand at 37° C. Afterwards, the solutions were taken on days 0, 1, 10, 25, 50, 75 and 100 and subjected to a MTT assay (Scudiero, D. A., et al. Cancer Res. 48:4827-4833 (1988)) using NIH-3T3 cells (Korean Cell Line Bank) for determining their remaining activity (FIG. 2). The results were given as relative values to the activity (100%) of sample taken on day 0."}, "[5]": {"tested_on": "tyrosinase", "experiment": "Tyrosinase activity in extracts of treated B16F10 cells (L-DOPA, absorbance 405 nm)", "assay_type": "cell-based", "conditions": "α-MSH 200 ng/ml, TGFβ-1 10 ng/ml or peptide 10 ng/ml-30 μg/ml, 4 days", "description": "The tridecapeptide synthesized in Example 1 was analyzed to decrease levels of melanin pigment. B16F10 cells (Korean Cell Line Bank) were plated in a density of 1×10^5 cells/well and cultured in DMEM (Sigma) for 3 days at 37° C. under 5% CO2 conditions. After cell adhesion was observed, medium was changed with a fresh medium containing 2% serum. Cells were incubated with tested materials in determined concentrations for 4 days at 37° C. under 5% CO2 conditions. The tested materials were prepared in such a manner that components indicated in Table 6 were dissolved in medium and diluted with a mixed solvent of propylene glycol:ethanol:distilled water (5:3:2).\nAfterwards, cells were harvested and treated with a lysis buffer containing sodiumdodecylsulfate (Sigma) and Triton X-100 (Sigma) to extract intracellular proteins. The extracted proteins were quantitated by the BCA method. For each experiment group, 90 μl of protein solution and 10 μl of L-DOPA (Sigma) were added and reacted for 30 min. The resultants were analyzed to measure their absorbance values at 405 nm for evaluating tyrosinase activities."}, "[6]": {"tested_on": "Mice melanocytes", "experiment": "Inhibition of melanin generation induced by α-MSH (Dooley method)", "assay_type": "cell-based", "conditions": "α-MSH 200 ng/ml; peptide 10 ng/ml-30 μg/ml; 3 days; absorbance 400 nm", "description": "The tridecapeptide synthesized in Example 1 was analyzed to decrease levels of melanin pigment. Mice melanocytes cultured were incubated with α-MSH (melanocyte stimulating hormone/Sigma) and then with the tridecapeptide in the determined concentrations to measure inhibition effects on melanin generation. Mice melanocytes were originated from C57BL/6 mice and cultured in DMEM (Dulbecco's modified Eagle's media) containing 10% fetal bovine serum at 37° C. under 5% CO2 conditions. Cells were cultured in a density of 1×10^5 cells/well and their adhesion to culture plates was observed. Then, cells were incubated with materials to be tested for 3 days. The tested materials were prepared in such a manner that components indicated in Table 5 were dissolved in medium and diluted with a mixed solvent of propylene glycol:ethanol:distilled water (5:3:2). Following removal of medium, cells were washed with PBS and treated with 1 N sodium hydroxide. The resultants were analyzed to measure their absorbance values at 400 nm."}, "[7]": {"tested_on": "HaCaT", "experiment": "Cytotoxicity test, SRB colorimetric assay, keratinocytes", "assay_type": "cell-based", "conditions": "500 pg/ml-200 μg/ml, 72 hr", "description": "(§1) To verify cytotoxicity of peptides of this invention on keratinocytes, fibroblasts and melanoma cells, SRB (Sulforhodamine B) colorimetric assay was carried out using HaCaT, NIH3T3 and B16F10 cells according to Rizzino et al method (Rizzino, et al. Cancer Res., 48:4266 (1988)). HaCaT, NIH3T3 or B16F10 cells (Korean Cell Line Bank) were cultured in 250 ml-flasks containing EMEM (Eagle's minimal essential media, Gibco, U.S.A.) supplemented with […] (fetal bovine serum). Cells cultured were treated with 0.25% trypsin solution to detach cells from the bottom of culture flasks and centrifuged to collect cell pellets. Cells were resuspended in EMEM not containing FBS, its aliquot (1×10^5) cells was added to each well of 96-well plates and cultured under 7% CO2 for 24 hr at 37° C. After 24-hr culture, the medium was changed with a fresh medium not containing serum and cells were incubated with the tridecapeptide (500 pg/ml, 10 ng/ml, 1 μg/ml, 100 μg/ml and 200 μg/ml) dissolved in 10% DMSO for 72 hr under the same conditions as described above. After removing supernatants, cells were washed once using PBS and incubated with SRB solution (Sigma). Cells were washed with PBS and observed under a microscope to find cell viability. In addition, absorbance at 590 nm was measured to analyze cell proliferation."}, "[8]": {"tested_on": "B16F10", "experiment": "Cytotoxicity test, SRB colorimetric assay, melanoma cells", "assay_type": "cell-based", "conditions": "500 pg/ml-200 μg/ml, 72 hr", "description": "as §1"}, "[9]": {"tested_on": "NIH3T3", "experiment": "Cytotoxicity test, SRB colorimetric assay, fibroblasts", "assay_type": "cell-based", "conditions": "500 pg/ml-200 μg/ml, 72 hr", "description": "as §1"}}, "note": "Where a SMILES comes first, the peptide text is derived from it."}
{"compound": "TGF-β1: recombinant TGF-β1 (Sigma) produced by E. coli, used as control", "values": [{"measurement": "melanosome number", "setting": "[1]", "result": "significantly reduced melanosome number"}, {"measurement": "levels of TRP-1 and TRP-2", "setting": "[2]", "result": "decreased"}, {"measurement": "levels of Phospho ERK 1 and ERK 2", "setting": "[3]", "result": "elevated levels of Phoshpo ERK 1 and ERK 2"}, {"measurement": "remaining activity over time (relative to day 0 = 100%)", "setting": "[4]", "result": "sharply decreased with the lapse of time"}, {"measurement": "tyrosinase activity", "setting": "[5]", "result": "relatively reduced tyrosinase activity in a dose dependent manner"}]}
{"compound": "α-MSH: melanocyte stimulating hormone/Sigma, used to induce melanin generation (Ac-SYSMEHFRWGKPV-NH2; ends and bridges not checked; UniProt P01189 138-150, looked up) [reference compound]", "values": [{"measurement": "melanin generation / melanin content", "setting": "[6]", "result": "highly elevated level of melanin production"}, {"measurement": "tyrosinase activity", "setting": "[5]", "result": "highly elevated level of tyrosinase activity"}]}
{"compound": "CC[C@H](C)[C@H](N)C(=O)N[C@@H](Cc1c[nH]c2ccccc12)C(=O)N[C@@H](CO)C(=O)N[C@@H](CC(C)C)C(=O)N[C@@H](CC(=O)O)C(=O)N[C@H](C(=O)N[C@@H](CCC(N)=O)C(=O)N[C@@H](Cc1ccc(O)cc1)C(=O)NCC(=O)NCC(=O)N[C@@H](CCCNC(=N)N)C(=O)NCC(=O)N[C@@H](CC(=O)O)C(=O)O)[C@@H](C)O", "note": "[tridecapeptide, NH2-Ile-Trp-Ser-Leu-Asp-Thr-Gln-Tyr-Gly-Gly-Arg-Gly-Asp-OH] (H-IWSLDTQYGGRGD-OH)", "values": [{"measurement": "cell number (cytotoxicity)", "setting": "[7]", "result": "the decrease in cell number was not shown"}, {"measurement": "cell number (cytotoxicity)", "setting": "[8]", "result": "the decrease in cell number was not shown"}, {"measurement": "cell number (cytotoxicity)", "setting": "[9]", "result": "the decrease in cell number was not shown"}]}
{"compound": "COc1cccc(-c2cc(=O)c3ccccc3o2)c1N", "note": "[PD98059, reference compound]", "values": [{"measurement": "melanosome number", "setting": "[1]", "result": "a large number of darkish pigments by induced melanosomes"}, {"measurement": "levels of TRP-1 and TRP-2", "setting": "[2]", "result": "increased"}, {"measurement": "levels of Phospho ERK 1 and ERK 2", "setting": "[3]", "result": "greatly decrease levels of Phoshpo ERK 1 and ERK 2"}]}
